Source: US12433903B2 (priority 2021, dated 2025)
Several values for one entry are separate records, joined by “and”; a condition that tells them apart may be missing. Equal entries are not always repeated.

Key:
[1] = Quantification of CBG and CBG glucuronide in rat plasma and brain after oral gavage; assay type: in vivo, Sprague-Dawley rat; settings: for CBG concentration in rat plasma (Day 21) / CBG concentration in rat brain tissue (Day 21) / CBG concentration in rat plasma (Day 1): individual rats; for CBG concentration in rat brain tissue (Day 21) / CBG concentration in rat brain tissue (Day 21), Average: 24 hrs post Rx
Protocol: The purpose of this study was to quantify cannabigerol (CBG) in rat plasma and brain.
Seven- to nine-week-old male and female Sprague-Dawley received either a single dose or once daily dosing for 21 clays of vehicle or CBG at three different dosage levels as shown in the Table below.
Approximately 0.2-0.25 mL blood was collected during the first 24 hours after the single dose, and at multiple times points after the terminal dose for the animals receiving daily dosing for 21 days. Liver, kidney, and colon samples were collected and fixed in 10% NBF for 48 hours, then stored in 70% ethanol at room temperature. Brain samples were collected and flash frozen.
Analytical curves were constructed using non-zero standards with CBG concentration ranging from 0.0025 to 2.500 μg/mL and […] in blank rat plasma samples and 1.0 to 2500 ng/mL in blank brain tissues. A blank sample was used to exclude contamination.
Instrument Used: AB SCIEX QTRAP 4500/Shimadzu Prominence LC

[2] = test system: cryopreserved hepatocytes; assay: Hepatocyte stability and metabolite profiling, human; assay type: in vitro ADME; settings: human hepatocyte samples, 40 and 60 minute
Protocol: (§1) The objective of this study was to investigate the stability of the test compound, CBG, in human, rat, dog, mouse, monkey and minipig cryopreserved hepatocytes. Follow-on metabolite profiling was performed.
(§2) CBG was incubated up to 2 hr with cryopreserved hepatocytes. Cryopreserved hepatocytes in suspension were added to test compound in supplemented media following pre-incubation to initiate the reaction and the reactions were stopped by organic solvent at the appropriate time points. The termination plates were centrifuged and sample supernatants were analysed using Cyprotex generic LC MS/MS conditions to generate intrinsic clearance values for CBG. Two control compounds for each species were included in the assay and if the values for these compounds were not within the specified limits the results were rejected and the experiment repeated.
(§3) Following the hepatocyte stability assay the samples were 59 tilized for metabolite profiling using suitable high-resolution LC-MS/MS conditions. The 40 and 60 minute human samples, 20 and 120 minute rat samples, 10 and 20 minute dog and monkey samples, 20 and 60 minute mouse samples, and 40 and 120 minute minipig samples were compared against the 0 minute control sample to establish which and how many metabolites were formed. […]
(§4) The areas and percentages reported for the parent and metabolites were calculated using the XIC data. […]

[3] = test system: cryopreserved hepatocytes; assay: Hepatocyte stability and metabolite profiling, dog; assay type: in vitro ADME; settings: dog hepatocyte samples, 10 and 20 minute
Protocol: as §1, §2, §3, §4

[4] = test system: cryopreserved hepatocytes; assay: Hepatocyte stability and metabolite profiling, rat; assay type: in vitro ADME; settings: rat hepatocyte samples, 20 and 120 minute
Protocol: as §1, §2, §3, §4

all the UGTs combined = assay: UGT reaction phenotyping, all the UGTs combined; assay type: in vitro ADME, Human
Excerpt: Experimental Summary: UGT Reaction Phenotyping (7 Isoforms).

[5] = test system: cryopreserved hepatocytes; assay: Hepatocyte stability and metabolite profiling, monkey; assay type: in vitro ADME; settings: monkey hepatocyte samples, 10 and 20 minute
Protocol: as §1, §2, §3, §4

CCCCCc1cc(O)c(C/C=C(\C)CCC=C(C)C)c(O)c1 [CBG, cannabigerol]
CBG concentration in rat plasma (Day 21) ([1]; CBG 10 mg/kg oral gavage once daily, 15 min post Rx): BLQ (Below Limit of Quantification (2.5 ng/mL)) | CBG concentration in rat plasma (Day 21) ([1]; CBG 10 mg/kg oral gavage once daily, 30 min post Rx): BLQ (Below Limit of Quantification (2.5 ng/mL)) | CBG concentration in rat plasma (Day 21) ([1]; CBG 10 mg/kg oral gavage once daily, 1 hr post Rx): BLQ (Below Limit of Quantification (2.5 ng/mL)) (4×) and 1.67 ng/mL and 2.75 ng/mL | CBG concentration in rat plasma (Day 21) ([1]; CBG 10 mg/kg oral gavage once daily, 2 hr post Rx): BLQ (Below Limit of Quantification (2.5 ng/mL)) (3×) and 5.6 ng/mL and 9.5 ng/mL and 2.72 ng/mL | CBG concentration in rat plasma (Day 21) ([1]; CBG 10 mg/kg oral gavage once daily, 4 hr post Rx): BLQ (Below Limit of Quantification (2.5 ng/mL)) (4×) and 4.73 ng/mL and 8.49 ng/mL | CBG concentration in rat plasma (Day 21) ([1]; CBG 10 mg/kg oral gavage once daily, 8 hr post Rx): BLQ (Below Limit of Quantification (2.5 ng/mL)) (4×) and 2.55 ng/mL and 4.18 ng/mL | CBG concentration in rat plasma (Day 21) ([1]; CBG 10 mg/kg oral gavage once daily, 24 hr post Rx): BLQ (Below Limit of Quantification (2.5 ng/mL)) | CBG concentration in rat brain tissue (Day 21) ([1]; CBG 10 mg/kg oral gavage once daily): BLQ (Below Limit of Quantification (1.0 ng/g)) | CBG concentration in rat plasma (Day 1) ([1]; CBG 10 mg/kg oral gavage once, 15 min post Rx): BLQ (Below Limit of Quantification (2.5 ng/mL)) | CBG concentration in rat plasma (Day 1) ([1]; CBG 10 mg/kg oral gavage once, 30 min post Rx): BLQ (Below Limit of Quantification (2.5 ng/mL)) | CBG concentration in rat plasma (Day 1) ([1]; CBG 10 mg/kg oral gavage once, 1 hr post Rx): 5.3 ng/mL and BLQ (Below Limit of Quantification (2.5 ng/mL)) (2×) and 18.6 ng/mL and 7.3 ng/mL | CBG concentration in rat plasma (Day 1) ([1]; CBG 10 mg/kg oral gavage once, 2 hr post Rx): 10.7 ng/mL and BLQ (Below Limit of Quantification (2.5 ng/mL)) and 14.6 ng/mL and 11.5 ng/mL and 12.0 ng/mL | CBG concentration in rat plasma (Day 1) ([1]; CBG 10 mg/kg oral gavage once, 4 hr post Rx): BLQ (Below Limit of Quantification (2.5 ng/mL)) | CBG concentration in rat plasma (Day 1) ([1]; CBG 10 mg/kg oral gavage once, 8 hr post Rx): BLQ (Below Limit of Quantification (2.5 ng/mL)) | CBG concentration in rat plasma (Day 1) ([1]; CBG 10 mg/kg oral gavage once, 24 hr post Rx): BLQ (Below Limit of Quantification (2.5 ng/mL)) | CBG concentration in rat plasma (Day 21) ([1]; CBG 30 mg/kg oral gavage once daily, 15 min post Rx): BLQ (Below Limit of Quantification (2.5 ng/mL)) (3×) and 14.7 ng/mL and 4.51 ng/mL and 9.12 ng/mL | CBG concentration in rat plasma (Day 21) ([1]; CBG 30 mg/kg oral gavage once daily, 30 min post Rx): BLQ (Below Limit of Quantification (2.5 ng/mL)) | CBG concentration in rat plasma (Day 21) ([1]; CBG 30 mg/kg oral gavage once daily, 1 hr post Rx): BLQ (Below Limit of Quantification (2.5 ng/mL)) | CBG concentration in rat plasma (Day 21) ([1]; CBG 30 mg/kg oral gavage once daily, 2 hr post Rx): BLQ (Below Limit of Quantification (2.5 ng/mL)) | CBG concentration in rat plasma (Day 21) ([1]; CBG 30 mg/kg oral gavage once daily, 4 hr post Rx): BLQ (Below Limit of Quantification (2.5 ng/mL)) | CBG concentration in rat plasma (Day 21) ([1]; CBG 30 mg/kg oral gavage once daily, 8 hr post Rx): BLQ (Below Limit of Quantification (2.5 ng/mL)) | CBG concentration in rat plasma (Day 21) ([1]; CBG 30 mg/kg oral gavage once daily, 24 hr post Rx): BLQ (Below Limit of Quantification (2.5 ng/mL)) | CBG concentration in rat brain tissue (Day 21) ([1]; CBG 30 mg/kg oral gavage once daily): BLQ (Below Limit of Quantification (1.0 ng/g)) (5×) and 43.8 ng/g | CBG concentration in rat plasma (Day 1) ([1]; CBG 30 mg/kg oral gavage once, 15 min post Rx): 3.8 ng/mL and 7.6 ng/mL and BLQ (Below Limit of Quantification (2.5 ng/mL)) (4×) | CBG concentration in rat plasma (Day 1) ([1]; CBG 30 mg/kg oral gavage once, 30 min post Rx): 15.2 ng/mL and BLQ (Below Limit of Quantification (2.5 ng/mL)) (5×) | CBG concentration in rat plasma (Day 1) ([1]; CBG 30 mg/kg oral gavage once, 1 hr post Rx): 22.9 ng/mL and 32.3 ng/mL and 32.5 ng/mL and 1.08 ng/mL and 31.2 ng/mL and 35.9 ng/mL | CBG concentration in rat plasma (Day 1) ([1]; CBG 30 mg/kg oral gavage once, 2 hr post Rx): BLQ (Below Limit of Quantification (2.5 ng/mL)) (2×) and 11.0 ng/mL and 26.6 ng/mL and 78.6 ng/mL and 36.0 ng/mL | CBG concentration in rat plasma (Day 1) ([1]; CBG 30 mg/kg oral gavage once, 4 hr post Rx): 24.5 ng/mL and BLQ (Below Limit of Quantification (2.5 ng/mL)) (2×) and 54.3 ng/mL and 62.1 ng/mL and 48.3 ng/mL | CBG concentration in rat plasma (Day 1) ([1]; CBG 30 mg/kg oral gavage once, 8 hr post Rx): BLQ (Below Limit of Quantification (2.5 ng/mL)) | CBG concentration in rat plasma (Day 1) ([1]; CBG 30 mg/kg oral gavage once, 24 hr post Rx): BLQ (Below Limit of Quantification (2.5 ng/mL)) (5×) and 2.75 ng/mL | CBG concentration in rat plasma (Day 21) ([1]; CBG 100 mg/kg oral gavage once daily, 15 min post Rx): BLQ (Below Limit of Quantification (2.5 ng/mL)) (4×) and 41.6 ng/mL | CBG concentration in rat plasma (Day 21) ([1]; CBG 100 mg/kg oral gavage once daily, 30 min post Rx): BLQ (Below Limit of Quantification (2.5 ng/mL)) (3×) and 178.5 ng/mL and 122.5 ng/mL | CBG concentration in rat plasma (Day 21) ([1]; CBG 100 mg/kg oral gavage once daily, 1 hr post Rx): BLQ (Below Limit of Quantification (2.5 ng/mL)) (3×) and 225.5 ng/mL and 206.0 ng/mL | CBG concentration in rat plasma (Day 21) ([1]; CBG 100 mg/kg oral gavage once daily, 2 hr post Rx): 307.0 ng/mL and 201.0 ng/mL and 278.0 ng/mL and BLQ (Below Limit of Quantification (2.5 ng/mL)) and 275.5 ng/mL | CBG concentration in rat plasma (Day 21) ([1]; CBG 100 mg/kg oral gavage once daily, 4 hr post Rx): BLQ (Below Limit of Quantification (2.5 ng/mL)) and 171.0 ng/mL and 129.5 ng/mL and 185.0 ng/mL and 905.0 ng/mL and 417.0 ng/mL | CBG concentration in rat plasma (Day 21) ([1]; CBG 100 mg/kg oral gavage once daily, 8 hr post Rx): BLQ (Below Limit of Quantification (2.5 ng/mL)) (2×) and 215.0 ng/mL and 905.0 ng/mL and 3095.0 ng/mL and 373.0 ng/mL | CBG concentration in rat plasma (Day 21) ([1]; CBG 100 mg/kg oral gavage once daily, 24 hr post Rx): BLQ (Below Limit of Quantification (2.5 ng/mL)) | CBG concentration in rat brain tissue (Day 21), Average ([1]; CBG 100 mg/kg oral gavage once daily, female rats): 299.27 ng/g | CBG concentration in rat brain tissue (Day 21) ([1]; CBG 100 mg/kg oral gavage once daily): 53.0 ng/g and 108.0 ng/g and 1460.0 ng/g and 271.0 ng/g and 580.0 ng/g and 46.8 ng/g | CBG concentration in rat brain tissue (Day 21), Average ([1]; CBG 100 mg/kg oral gavage once daily, male rats): 540.33 ng/g | CBG concentration in rat plasma (Day 1) ([1]; CBG 100 mg/kg oral gavage once, 15 min post Rx): BLQ (Below Limit of Quantification (2.5 ng/mL)) | CBG concentration in rat plasma (Day 1) ([1]; CBG 100 mg/kg oral gavage once, 30 min post Rx): BLQ (Below Limit of Quantification (2.5 ng/mL)) | CBG concentration in rat plasma (Day 1) ([1]; CBG 100 mg/kg oral gavage once, 1 hr post Rx): BLQ (Below Limit of Quantification (2.5 ng/mL)) | CBG concentration in rat plasma (Day 1) ([1]; CBG 100 mg/kg oral gavage once, 2 hr post Rx): BLQ (Below Limit of Quantification (2.5 ng/mL)) | CBG concentration in rat plasma (Day 1) ([1]; CBG 100 mg/kg oral gavage once, 4 hr post Rx): BLQ (Below Limit of Quantification (2.5 ng/mL)) (4×) and 119.0 ng/mL and 143.0 ng/mL | CBG concentration in rat plasma (Day 1) ([1]; CBG 100 mg/kg oral gavage once, 8 hr post Rx): BLQ (Below Limit of Quantification (2.5 ng/mL)) | CBG concentration in rat plasma (Day 1) ([1]; CBG 100 mg/kg oral gavage once, 24 hr post Rx): BLQ (Below Limit of Quantification (2.5 ng/mL)) | concentration of CBG in plasma (in words) ([1]; oral gavage 10-100 mg/kg, Day 1 and Day 21): low or below the level of quantitation (BLQ) | CBG in brain (in words) ([1]; oral gavage, Day 21): not detected | first pass metabolism to the glucuronide (in words) ([1]; upon oral administration): very high | metabolites observed (number) [2]: Seven | metabolites observed (number) [3]: three | metabolites observed (number) [4]: eight | activity of UGT2B7 relative to UGT1A9 (all the UGTs combined): approximately 1/10 | share of the activity for all the UGTs combined represented by UGT1A9 (all the UGTs combined): ~80% | metabolites observed (number) [5]: four
